Data taken from patent EP0210351A2, “Use of porphyrin derivatives in the detection and treatment of tumours” (Nippon Petrochemicals Co., Ltd., priority 1985, dated 1987).

Key:
[1] = test system: SmT-F transplanted tumors; test: Photodynamic therapy of transplanted mouse tumors, necrotic/affected area by Evans Blue dye (Example 8); type: in vivo, DBA/2 Ha Ros-d+Ha mice; conditions: 100 mg/kg iv, 24 hrs between drug dose and light, 200 mW/cm^2, 300 J/cm^2, wavelength nm: 2-acetyl 680, 2-formyl 690, chlorin e6 665, deutero 655, meso 652, necrotic/affected tumor area
Method: The treatment and evaluation procedure is as follows: • DBA/2 Ha Ros-d+Ha mice with SmT-F transplanted tumors either in the exterior part of the hind leg or the side of the mouse were injected intravenously via the external jugular or intraperitoneally with the photosensitizing drug. At the specified time after injection, the area over the tumor was shaved and the light treatment begun.
Light from a Cooper Aurora argon pumped tunable dye laser was administered via a micro lens system (developed by Dr. Daniel Doiron, D,R.D. Consulting, Santa Barbara, California) coupled through a quartz fiber to the laser. The optical properties of the lens are such that the light exits the lens in a circular pattern with homogenous intensity throughout the lighted area, The diameter of the lighted area is a function of the distance from the lens,
The light intensity was measured with a Yellow Springs Instrument Model 65 A Radiometer at the point of treatment. A 1.5 cm diameter circle of the animal's skin, centered as closely as possible over the tumor, was irradiated in all the experiments. The intensity, wavelength, and dosage of light is included in the data for individual groups of animals. Wavelengths are adjusted, using a Hartridge reversion spectroscope to within 1 nm of the stated value.
Twenty four hours after light treatment, each mouse received 5 mg of Evans Blue Dye intravenously (1). After an additional two hours, the mice were sacrificed and the tumors were sectioned vertically through the center of the light treated area. Unaffected tumor was stained blue as was unaffected normal tissue. Necrotic or affected areas were white or red in appearance. Measurements on both the whole tumors and affected areas of the tumors were made vertically and horizontally with calipers to the nearest one half millimeter.

[2] = test system: Morris Hepatoma 7777 tumors; test: Photodynamic therapy, chlorin e6 compared with Photofrin II, tumor necrosis by Evans Blue dye (Example 7); type: in vivo, Buffalo rats; conditions: 19 tumors treated; 20mg/kg intravenously; light 24 hours later; 665 nanometer; 100 mw/cm^2; 20 joules/cm^2
Method: Male Buffalo rats (approximately 200g each), with transplanted subcutaneous Morris Hepatoma 7777 tumors on the exterior portion of the hind legs were injected intravenously via the exterior jugular with chlorin-e6 or Photofrin II, ^(2) at a dosage of 20mg/kg. Twenty four hours later, the areas over the tumors were shaved and the light treatment was begun.
Light from a Cooper Aurora argon pumped tunable dye laser was administered via a micro lens system (developed by Dr. Daniel Doiron, D.R.D. Consulting, Santa Barbara, California) coupled through a quartz fiber to the laser. The optical properties of the lens are such that the light exits the lens in a circular pattern with a homogenous intensity throughout the lighted area. The diameter of the lighted area is a function of its distance from the lens.
The light intensity was measured with a Yellow Springs Instrument Model 65A Radiometer at the point of treatment. […] Photofrin II rats were treated with 630 nanometer light in accordance with the preponderance of photodynamic therapy experiments described in the literature, using this drug, and its forerunner HPD or Photofrin I. The wavelengths of light were determined with the aid of a Hartridge reversion spectroscope to within one nanometer. […]
Nineteen tumors were evaluated for Chlorin e6 and light effect while twenty two tumors were assessed for Photofrin II and light effect.

Morris Hepatoma 7777 = test: Photodynamic therapy, depth of tumor necrosis by Evans Blue method (Example 6); type: in vivo, Buffalo rats; conditions: Tumor 7777; 20 Joules/cm^2; drug dose 20 mg/kg intravenously; 24 hrs between drug and light; 665 nm; 100 mW/cm^2; n=3
Method: The phtotdynamic therapy experiments have been carried out on Buffalo rats, using the transplantable tumor, Morris Hepatoma 7777. The tumors were transplanted subcutaneously on the outside of the thigh. During treatment, the tumors ranged in size between 1 and 2.5 cm in diameter.
The general treatment regime is as follows. The rats are injected with a solution of the chlorin prepared as follows: 20mg of the sodium salt of the chlorin was dissolved in 1 ml of 0.9% NaCl. The chlorin solution was then injected intravenously through the external jugular while the rat was anesthetized with ether. The volume of solution injected was calculated based upon the weight of the animal and the dosage, on a weight to weight basis, for the particular experiment. […]
The lens disperses the laser beam, providing a circular distribution of light with homogenous light intensity throughout the area of the incident light beam. […] The light intensity was determined using a Yellow Springs Instrument, Model 65A, radiometer. […]
Subsequent to illumination, the animal was returned to its cage and, 24 hours later, it was treated intravenously in the external jugular vein with 14 mg of Evans Blue dye, dissolved in 250 ul of 0.9% NaCl. […] The extent of tumor necrosis was assessed by the lack of dye uptake, and the depth of the necrotic cross section of the tumor was recorded in millimeters. […]

Compound | X̄ ± s.d. (cm) [1] [cm] | range cm [1] | number of tumors developing necrosis following treatment [2] | Range mm: range of depth of necrosis within the group (Morris Hepatoma 7777) | x̄ s.d.(n): mean depth of necrosis of the tumor tissue (Morris Hepatoma 7777)
CCC1=C(C)c2cc3[nH]c(cc4nc(c(CC(=O)O)c5[nH]c(cc1n2)c(C)c5C(=O)O)C(CCC(=O)O)C4C)c(C)c3C=O (stereo not shown) [2-formyl chlorin e6, 2-Desvinyl-2-FormylChlorin e6] | 0.33±0.12 | 0.20-0.45 cm | – | – | –
CCC1=C(C)c2cc3[nH]c(cc4nc(c(CC(=O)O)c5[nH]c(cc1n2)c(C)c5C(=O)O)C(CCC(=O)O)C4C)c(C)c3C(C)=O (stereo not shown) [2-acetyl chlorin e6] | 0.04±0.08 | 0.00-0.15 cm | – | – | –
C=Cc1c(C)c2cc3nc(c(CC(=O)O)c4[nH]c(cc5nc(cc1[nH]2)C(C)=C5CC)c(C)c4C(=O)O)[C@@H](CCC(=O)O)[C@@H]3C [Chlorin e6] | 0.26±0.05 | 0.20-0.35 cm | 17 | 3.5-5 mm | 4.5±0.9 (3) mm
CCC1=C(C)c2cc3[nH]c(cc4nc(c(CC(=O)O)c5[nH]c(cc1n2)c(C)c5C(=O)O)C(CCC(=O)O)C4C)c(C)c3CC (stereo not shown) [mesochlorin e6, Mesochlorin e6] | 0.06±0.08 | 0.00-0.15 cm | – | – | –
CCC1=C(C)c2cc3cc(C)c(cc4nc(c(CC(=O)O)c5[nH]c(cc1n2)c(C)c5C(=O)O)C(CCC(=O)O)C4C)[nH]3 (stereo not shown) [deuterochlorin e6, Deuterochlorin e6] | 0.59±0.07 | 0.50-0.70 cm | – | – | –
